Series [1] can be described thus: Pharmacokinetics in cassette in male cynomolgus monkeys for Kp measurement. The series is classed as in vivo. The settings on record: cynomolgus monkey, 0.5 mg/kg, intravenous. Here is the method: F.1 Test Animal: Cynomolgus Monkeys from Labcorp 8298417 Maintained at Labcorp-Madison
F.2 Pharmaceutical Formulation and Administration
Test compound was dissolved in the vehicle of 10% DMSO, 10% ethanol, 40% polyethylene glycol 300, and 40% propylene glycol to get 0.5 mg/mL test compound solution. The compound was administered by intravenous administration at a dose of 1 mL/kg. The intravenous dose was administered as a bolus injection followed by an approximately 2-hour infusion via an indwelling catheter in a saphenous or cephalic vein. Fasting was not required.
• Collection time: • PK for Plasma: Predose, 0.25, 1, 1.5 and 2 hours postdose (based on start of infusion) • PK for Whole Blood: 1.5 hour postdose • Anticogulant: K2EDTA • Volume: • PK for Plasma: Approximately 0.5 mL • PK for Whole Blood: Approximately 0.1 mL • Collection Site: Femoral vein; saphenous or cephalic vein

Series [2] can be described thus: PK data (IV/PO) in cynomolgus monkey. To be noted: in vivo; for clearance: read-out: Observed CL (converted); for Vd: read-out: Vss; for bioavailability: PO 0.5 mg/Kg.
Series [3] in a line: Hepatocyte stability assay, dog. The series is classed as in vitro ADME. To be noted: Beagle Dog. Here is the method:
(§1) BioreclamationIVT (Baltimore, MD) provided the cryopreserved hepatocytes, hepatocyte thawing (HT) medium, and Krebs-Henseleit buffer (KHB) medium. The stock solution concentration was 1 M in DMSO and was then diluted further in acetonitrile/water (1:1 v/v). All other chemicals were purchased from Sigma-Aldrich (St. Louis, MO) or Thermo Fisher Scientific (Waltham, MA).
(§2) The quench solution used to stop reactions in the hepatocyte incubations was comprised of 100% (v/v) acetonitrile. Internal Standard/Quench (IS/Q) solution used to stop reactions with the positive control also contained 200 nM Labetalol.
(§3) Metabolic Stability in Cryopreserved Hepatocytes: Test compounds, or the positive control metabolic substrate, was incubated in suspensions of cryopreserved hepatocytes at a final concentration of 1 μM. Vials containing cryopreserved hepatocytes were removed from liquid nitrogen and immediately immersed in a 37° C. water bath. The vials were swirled gently until the contents had thawed. They were then immediately emptied into 48 mL of pre-warmed thawing medium in a 50 mL conical tube. Cells remaining in the vial were re-suspended with 1.0 mL of pre-warmed thawing medium and added to the conical tube. The tube was capped and then gently inverted several times to re-suspend the hepatocytes. The cell suspension was centrifuged at 500×g for 10 minutes at room temperature and the supernatant discarded. The cell pellet was loosened by gently swirling the centrifuge tube. Non-supplemented KHB medium was added to obtain the appropriate target cell density. The viabilities of all cell preparations were ≥85%, assessed by Trypan blue dye exclusion.
(§4) For incubations, aliquots of hepatocyte suspension (250 μL containing a cell concentration of 2×10^6 cells/mL) were added to 250 μL of 2 μM substrate (test compound or positive control) in supplemented KHB in duplicate wells in a 24-well plate. Final concentration in the incubations were 1×10^6 cells/mL and 1 μM substrate. A cell-free control incubation (KHB only) was also included. The incubations were carried out with gentle shaking in a 37° C. incubator under a humid atmosphere of 95% air/5% CO2 (v/v). Aliquots (100 μL) were removed after 0, 1, 3, and 6 hours and added to 200 μL quenching solution. The samples were then placed on a shaker for 10 min followed by centrifugation at 3000×g for 20 min. The supernatant was transferred to a new plate and diluted with 100 μL of water to reduce the organic content and then placed on a shaker for 10 mins. Samples were injected and analyzed with methods described below.
(§5) Liquid Chromatography: Quantification of positive control and test compound was performed by analyte/internal standard peak area ratios (PAR) measured on a Thermo Scientific™ Q Exactive™ Hybrid Quadrupole-Orbitrap Mass Spectrometer MS/MS with an electrospray interface operating in positive ion mode. The mass spectrometer was coupled to a Dionex Ultimate® 3000 HPLC system. Samples (10 μL aliquots) were injected with a Leap Technologies HTC PAL autosampler. For positive control, the column used was a Thermo Scientific™ Hypersil GOLD™ HPLC column ([…], 50×2.1 mm). Mobile phase A consisted of 95% (v/v) water, 5% (v/v) acetonitrile, and contained 0.1% (v/v) formic acid (FA). Mobile phase B consisted of 95% (v/v) acetonitrile, 5% (v/v) water, and contained 0.1% (v/v) FA. Elution was achieved, at a flow rate of 0.5 mL/min, by a series of linear gradients: initial condition was 5% B at 0 min, isocratic for 20 seconds; then linear gradient to 95% B over 90 seconds, followed by isocratic for 60 seconds at 95% B, and re-equilibrated to initial conditions over 70 seconds.
(§6) Metabolic stabilities of positive control and test compound were determined by measuring the rates of disappearance of the parent with time by determining the % of parent remaining at time t (Ct) {Obach 1997}.
(§7) Data (% of parent remaining) were plotted on a semi-log scale and fitted using an exponential fit: […]

Series [4] is described as follows: Hepatocyte stability assay, rat. The settings on record: Sprague-Dawley Rat. The series is classed as in vitro ADME. As for the experimental part: as §1, §2, §3, §4, §5, §6, §7
The mark [5] stands for this setting: brain Kp = [brain]/[plasma], cyno, read-out: Cyno brain Kp.
[6] abbreviates: brain Kpu,u = Kp * (plasma free/rat brain free), read-out: Cyno brain Kpu,u.

Results on ten molecules are retold here after patent US12448388B2, “PRMT5 inhibitors and uses thereof” (Gilead Sciences, Inc., priority 2023, dated 2025).

Where “and” joins values, the source holds several entries; their conditions need not be identical. Equal values may be shown once. Read-outs that look alike come from different tables or passages of the source.

Regarding `Nc1nc2cc(F)c(C(=O)N3CCC[C@@H]4Oc5cc(C(F)(F)F)ccc5[C@@H]43)cc2n2cncc12` [Ff-104, (4-amino-7-fluoroimidazo[1,5-a]quinoxalin-8-yl)((4aS,9bS)-7-(trifluoromethyl)-3,4,4a,9b-tetrahydrobenzofuro[3,2-b]pyridin-1(2H)-yl)methanone], the values for the Kp in series [1] (setting [5]) and in series [1] (setting [6]) were 1.78 and 0.19, respectively. Besides, the figures for the half-life in series [2] (IV 0.25 mg/Kg) and in series [2] (IV 0.5 mg/Kg) were 624 min and 660 min, respectively. Moreover, the clearance is 1.67 mL/min/kg in series [2] (IV 0.25 mg/Kg) and 3.17 mL/min/kg in series [2] (IV 0.5 mg/Kg). Moreover, the Vd in series [2] (IV 0.25 mg/Kg) amounted to 1.47 L/kg; in series [2] (IV 0.5 mg/Kg) it was 1.7 L/kg. In addition, the bioavailability in series [2] was found to be 108%. Also, the “Predicted Hepatocyte CL” value was 0.38 L/h/kg and 0.67 L/h/kg in series [3]; 1.66 L/h/kg and 1.24 L/h/kg in series [4].
For the molecule `Nc1nc2ccc(C(=O)N3CCC[C@@H]4Oc5cc(C(F)(F)F)ccc5[C@@H]43)cc2n2cncc12` [Ff-111, (4-aminoimidazo[1,5-a]quinoxalin-8-yl)((4aS,9bS)-7-(trifluoromethyl)-3,4,4a,9b-tetrahydrobenzofuro[3,2-b]pyridin-1(2H)-yl)methanone], in series [1] (setting [5]), the Kp turned out to be 1.1. Moreover, the Kp in series [1] (setting [6]) was 0.23. Also, in series [2] (IV 0.33 mg/Kg), the half-life was 354 min, the clearance is 2.5 mL/min/kg and the Vd was 1.29 L/kg. Moreover, the “Predicted Hepatocyte CL” value in series [3] was 0.74 L/h/kg. Moreover, the “Predicted Hepatocyte CL” value in series [4] is 1.67 L/h/kg.
For `Nc1nc2cnc(C(=O)N3CCC[C@@H]4Oc5cc(C(F)(F)F)ccc5[C@@H]43)cc2n2cncc12` [Ff-110, (4-aminoimidazo[1,5-a]pyrido[3,4-e]pyrazin-8-yl)((4aS,9bS)-7-(trifluoromethyl)-3,4,4a,9b-tetrahydrobenzofuro[3,2-b]pyridin-1(2H)-yl)methanone], the figures for the Kp in series [1] (setting [5]) and in series [1] (setting [6]) were 0.76 and 0.1, respectively.
As for `Nc1nc2cnc(C(=O)N3CCC[C@@H]4Oc5cc(OC(F)(F)F)cc(F)c5[C@@H]43)cc2n2cncc12` (single isomer, unassigned) [Fg-55], the Kp in series [1] (setting [5]) is 0.95; in series [1] (setting [6]), 0.12. Besides, the half-life in series [2] (IV 0.25 mg/Kg) is 642 min. In addition, the clearance in series [2] (IV 0.25 mg/Kg) was 2.17 mL/min/kg. Also, the Vd in series [2] (IV 0.25 mg/Kg) was determined as 2 L/kg. In addition, the “Predicted Hepatocyte CL” value in series [3] was 0.75 L/h/kg; in series [4] it was 0.93 L/h/kg.
In the case of `Nc1nc2cnc(C(=O)N3CCC[C@@H]4Oc5cc(OC(F)(F)F)ccc5[C@@H]43)cc2n2cncc12` [Ff-341, (4-aminoimidazo[1,5-a]pyrido[3,4-e]pyrazin-8-yl)((4aS,9bS)-7-(trifluoromethoxy)-3,4,4a,9b-tetrahydrobenzofuro[3,2-b]pyridin-1(2H)-yl)methanone], in series [2] (IV 0.25 mg/Kg), the half-life is 480 min, the clearance was 3.33 mL/min/kg and the Vd is 2.15 L/kg. Further, the “Predicted Hepatocyte CL” value in series [3] is 0.74 L/h/kg. Moreover, the “Predicted Hepatocyte CL” value in series [4] was 0.96 L/h/kg.
On to `Cc1ncn2c1c(N)nc1cnc(C(=O)N3CCC[C@@H]4Oc5cc(C(F)(F)F)ccc5[C@@H]43)cc12` [Ff-499, (4-amino-3-methylimidazo[1,5-a]pyrido[3,4-e]pyrazin-8-yl)((4aS,9bS)-7-(trifluoromethyl)-3,4,4a,9b-tetrahydrobenzofuro[3,2-b]pyridin-1(2H)-yl)methanone], for which the Kp in series [1] (setting [5]) was 2.4. Moreover, the Kp in series [1] (setting [6]) came out at 0.51. Also, in series [2] (IV 0.33 mg/Kg), the half-life was 83.4 min, the clearance is 24.5 mL/min/kg and the Vd is 1.93 L/kg. In addition, the “Predicted Hepatocyte CL” value in series [3] is 0.92 L/h/kg. The “Predicted Hepatocyte CL” value in series [4] is 2.23 L/h/kg.
Turning to `C[C@@H]1CN(C(=O)c2cc3c(cc2F)nc(N)c2cncn23)[C@H]2c3cc(F)c(OC(F)(F)F)cc3C[C@H]2O1` (single isomer, unassigned) [Ff-197], the Kp in series [1] (setting [5]) amounted to 1.2; in series [1] (setting [6]), 0.28.
With `Cc1ncc2c(N)nc3cnc(C(=O)N4CCC[C@@H]5Oc6cc(OC(F)(F)F)ccc6[C@@H]54)cc3n12` [Ff-340, (4-amino-1-methylimidazo[1,5-a]pyrido[3,4-e]pyrazin-8-yl)((4aS,9bS)-7-(trifluoromethoxy)-3,4,4a,9b-tetrahydrobenzofuro[3,2-b]pyridin-1(2H)-yl)methanone], the Kp in series [1] (setting [5]) worked out at 1.1. The Kp in series [1] (setting [6]) was 0.32. In series [2] (IV 0.33 mg/Kg), the half-life is 348 min, the clearance was 4 mL/min/kg and the Vd amounted to 1.9 L/kg. Besides, the “Predicted Hepatocyte CL” value in series [3] is 0.72 L/h/kg. Besides, the “Predicted Hepatocyte CL” value in series [4] is 1.19 L/h/kg.
As for `C[C@H]1CN(C(=O)c2cc3c(cc2F)nc(N)c2cncn23)[C@H]2c3ccc(C(F)(F)F)cc3C[C@H]2O1` (single isomer, unassigned) [Ff-81], in series [1] (setting [5]), the Kp was determined as 0.96. In addition, the Kp in series [1] (setting [6]) worked out at 0.13. Besides, in series [2] (IV 0.5 mg/Kg), the half-life is 960 min, the clearance is 3 mL/min/kg and the Vd came out at 1.77 L/kg. Moreover, in series [2], the bioavailability is 123%. Moreover, the “Predicted Hepatocyte CL” value in series [3] is 0.21 L/h/kg. The “Predicted Hepatocyte CL” value in series [4] is 1.1 L/h/kg.
As for `Nc1nc2cnc(C(=O)N3CCC[C@@H]4Oc5cc(C(F)(F)F)cc(F)c5[C@@H]43)cc2n2cncc12` (single isomer, unassigned) [Fg-53], the results for the Kp in series [1] (setting [5]) and in series [1] (setting [6]) were 0.99 and 0.16, respectively. The same molecule gave a half-life in series [2] (IV 0.25 mg/Kg) of 924 min. Moreover, the clearance in series [2] (IV 0.25 mg/Kg) is 2 mL/min/kg. Besides, the Vd in series [2] (IV 0.25 mg/Kg) was 2.53 L/kg. The bioavailability in series [2] was found to be 84%. Besides, the “Predicted Hepatocyte CL” value is 0.61 L/h/kg in series [3] and 1.12 L/h/kg in series [4].

The term half-life denotes the time in which the quantity being followed falls by half.
